Values quoted from earlier work, collected in US20120209125A1, “Singlet Oxygen Production and Dosimetry for Photodynamic Therapy” (PHYSICAL SCIENCES, INC., priority 2011, published 2012).

Settings: isoflurane gas anesthesia; 'minimally metabolized'

In the case of `FC(F)OC(Cl)C(F)(F)F` (stereo not shown) [isoflurane], the “fraction metabolized by the liver” value is given as under 0.17%.
